Experimental findings from patent publication US20040009568A1, “Catalytic domains of the human hepatocyte growth factor receptor tyrosine kinase, and materials and methods for identification of inhibitors thereof” (priority 2001, published 2004) are described below.

Common to all, as to format: biochemical
One test deals with T1, unphosphorylated HGFR (Homo sapiens, UniProt P08581).
T1 construct: The cDNA corresponding to residues 1051-1349 of the HGFR kinase catalytic domain (HGFRkd) was cloned into a pFastBac plasmid; added N-terminal methionine (start codon of the NcoI site) (N); made in house; host or cells: Sf9 insect cells, recombinant baculovirus (pFastBac-NcoI)
Briefly: Coupled enzymatic (PK/LDH) kinase assay, unphosphorylated HGFR. The method, then:
(§1) A coupled enzymatic assay format was used to measure both HGFR and phospho-HGFR(PHGFR) activities. The kinase-catalyzed production of ADP from ATP that accompanies phosphate transfer to the random copolymer poly(Glu4Tyr) or peptide substrate was coupled to the oxidation of NADH through the activities of pyruvate kinase (PK) and lactate dehydrogenase (LDH). NADH conversion to NAD^+ was monitored by the decrease in absorbance at 340 nm (ε=6.22 cm^−1 mM^−1) using a Beckman DU650 spectrophotometer. A typical reaction solution contained 1 mM phosphoenolpyruvate, 0.24 mM NADH, 40 mM MgCl2, 5 mM DTT, poly(Glu4Tyr), ATP, 15 units/mL PK, 15 units/mL LDH in 100 mM HEPES, pH 7.5. ATP was varied from 0.5 to 2000 μM and poly(Glu4Tyr) was varied from 0.5 to 20 mg/mL. In addition, Met2 peptide (0-4 mM) could be used instead of poly(Glu4Tyr). Assays were initiated with the addition of 12 nM phosphorylated HGFR or 125 nM unphosphorylated HGFR. Inhibition studies were performed as described above with following exceptions: 0.075 mM ATP (PHGFR) and 0.375 mM ATP (HGFR). Data was fit to the equation for competitive inhibition by the method of nonlinear least squares (KaleidaGraph).
The kinetic consequences of the autophosphorylation were investigated. HGFR and pHGFR activities were evaluated in two distinct and complementing assay formats. […] NADH conversion to NAD^+ was monitored spectrophotometrically by the decrease in absorbance at 340 nm (ε=6.22 cm^−1 mM^−1). […]
(§2) Inhibition of HGFR and pHGFR were monitored in two distinct assay formats to insure valid results. The coupled, enzymatic format (CE) was a continuous assay that measured ADP production through the sequential action of two standard coupling enzymes (pyruvate kinase and lactate dehydrogenase). The radioactive assay format was a discontinuous assay that measured phospho-protein production directly. […]
(§3) The coupled enzymatic analysis of HGFR processing of ATP and poly(Glu4Tyr) were measured at 37° C. Variable substrate concentration was measured at a fixed saturating concentration of the other substrate.

Test [1] has as its target T2, phosphorylated HGFR (pHGFR) (Homo sapiens, UniProt P08581).
T2 construct: The cDNA corresponding to residues 1051-1349 of the HGFR kinase catalytic domain (HGFRkd) was cloned into a pFastBac plasmid; added N-terminal methionine (start codon of the NcoI site) (N); made in house; host or cells: Sf9 insect cells, recombinant baculovirus; then autophosphorylated in vitro with MgATP
Briefly: Coupled enzymatic (PK/LDH) kinase assay, phospho-HGFR. The method, then: as §1
(§4) The kinetic consequences of the autophosphorylation were investigated. HGFR and pHGFR activities were evaluated in two distinct and complementing assay formats. […] A coupled, enzymatic assay format (CE format) was used to measure ADP production. HGFR-catalyzed production of ADP from ATP that accompanied phosphate transfer to the random copolymer poly(Glu4Tyr) was coupled to the oxidation of NADH through the sequential activities of pyruvate kinase (PK) and lactate dehydrogenase (LDH). NADH conversion to NAD^+ was monitored spectrophotometrically by the decrease in absorbance at 340 nm (ε=6.22 cm^−1 mM^−1). A second assay format was used to measure the production of [^32P]-labeled phospho-protein (dephosphorylated α-casein). Dephosphorylated α-casein is the substrate for HGFR […] in a glass fiber filterplate assay format. […]
as §2, §3

In a further test the target is T3, pHGFR (Homo sapiens, UniProt P08581).
T3 construct: The cDNA corresponding to residues 1051-1349 of the HGFR kinase catalytic domain (HGFRkd) was cloned into a pFastBac plasmid; added N-terminal methionine (start codon of the NcoI site) (N); made in house; host or cells: Sf9 insect cells, recombinant baculovirus; then autophosphorylated in vitro with MgATP
Nature of the test: Radioactive glass fiber filterplate assay (32P transfer to dephosphorylated α-casein). The protocol:
as §4, §2

Setting [2] is: coupled enzymatic analysis, 37° C., other substrate fixed saturating.

T2 sequence (P08581 1051-1349): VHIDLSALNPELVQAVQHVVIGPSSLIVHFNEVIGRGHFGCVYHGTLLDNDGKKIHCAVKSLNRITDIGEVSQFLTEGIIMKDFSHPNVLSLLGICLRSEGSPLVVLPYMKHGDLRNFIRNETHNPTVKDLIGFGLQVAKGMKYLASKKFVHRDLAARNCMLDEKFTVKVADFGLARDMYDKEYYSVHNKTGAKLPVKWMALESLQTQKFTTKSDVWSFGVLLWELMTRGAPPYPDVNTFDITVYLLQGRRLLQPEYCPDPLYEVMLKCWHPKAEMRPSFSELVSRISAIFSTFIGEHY
T1 sequence (P08581 1051-1349): as above
T3 sequence (P08581 1051-1349): as above

On to `O=C1Nc2ccc3ncsc3c2/C1=C/Nc1ccc(S(=O)(=O)NCCOCCO)cc1` [Compound 1, 4-[[(Z)-(6,7-dihydro-7-oxo-8H-pyrrolo[2,3-g]benzothiazol-8-ylidene)methyl]amino]-N-[2-(2-hydroxyethoxy)ethyl]-(9CI)], for which the Ki stood at 500 ± 30 nM at unphosphorylated HGFR (coupled enzymatic format, 0.375 mM ATP, data fit to equation for competitive inhibition, read-out: inhibition (HGFR/CE format)); 381 ± 19 nM in test [1] (coupled enzymatic format, 0.075 mM ATP, data fit to equation for competitive inhibition, read-out: inhibition (pHGFR/CE format)); 128 ± 17 nM on pHGFR (radioactive filterplate format, 27.5 nM pHGFR, 0.075 mM ATP, RT, 30 min, read-out: inhibition (pHGFR/radioactive format)). In test [1] (CE assay, ATP 25-3200 μM, Compound 1 0-1200 nM, pHGFR 25 nM, Met2 peptide 0.5 mM), the “mechanism of pHGFR inhibition (double reciprocal analysis)” value is recorded as “ATP-competitive inhibitor”.
As for `Nc1ncnc2c1ncn2[C@@H]1O[C@H](COP(=O)(O)OP(=O)([O-])OP(=O)([O-])O)[C@@H](O)[C@H]1O.[Mg+2]` [MgATP, ATP], the Km at unphosphorylated HGFR (setting [2]) was found to be 373 ± 61 µM; in test [1] (coupled enzymatic analysis, 37° C., other substrate fixed saturating, read-out: Km, Phospho-HGFR), 73.7 ± 2.8 µM; on pHGFR (radioactive filtermate format, dephosphorylated α-casein phosphoacceptor, read-out: Km for ATP (radioactive filtermate format)), 78.6 ± 12.1 µM. The “kcat, Unphosphorylated HGFR” value on unphosphorylated HGFR (setting [2]) came out at 1.02 ± 0.013 s⁻¹. The “kcat, Phospho-HGFR” value in test [1] (setting [2]) was found to be 31.3 ± 2.1 s⁻¹.
